According to patent US20120207835A1, “BROAD-SPECTRUM BIOCIDE COMPOSITIONS AND A METHOD FOR THEIR PREPARATION” (BROMINE COMPOUNDS LTD., priority 2009, published 2012):

Assays:
A. niger = test: Agar plate test: diameter of the A. niger growth ring after contact with biocide matrix; format: cell-based; conditions: for A. niger diameters (cm), 3 days: day 3; for A. niger diameters (cm), 7 days: day 7; for A. niger diameters (cm), 14 days: day 14; for A. niger diameters (cm), 21 days: day 21; for A. niger diameters (cm), 28 days: day 28
Experimental: Samples of the prepared materials were dispersed in hot (˜45° C.) agar, under stirring. […] Pure DBNPA and commercial biocide (OTW) were used as standards. All the results were duplicated to assure accuracy.

[1] = room temperature; cited from earlier work
[2] = 300 ppm in agar (column DBNPA in agar, ppm), inoculum plug ID 1 cm
[3] = 300 ppm in agar, inoculum plug ID 1 cm

Row | SMILES | concentration at which activity is demonstrated (A. niger) [ppm] | time over which activity is lost (A. niger; 300 ppm DBNPA) [days] | A. niger diameters (cm), 3 days (A. niger; [2]) [cm] | A. niger diameters (cm), 7 days (A. niger; [3]) [cm] | A. niger diameters (cm), 14 days (A. niger; [3]) [cm] | A. niger diameters (cm), 21 days (A. niger; [3]) [cm] | A. niger diameters (cm), 28 days (A. niger; [3]) [cm] | A. niger diameters (cm), 3 days (A. niger; 1000 ppm DBNPA in agar) [cm] | A. niger diameters (cm), 7 days (A. niger; 1000 ppm DBNPA in agar) [cm] | A. niger diameters (cm), 14 days (A. niger; 1000 ppm DBNPA in agar) [cm] | A. niger diameters (cm), 21 days (A. niger; 1000 ppm DBNPA in agar) [cm] | A. niger diameters (cm), 28 days (A. niger; 1000 ppm DBNPA in agar) [cm] | time to loss of activity by decomposition in aqueous media [1] [days]
1 | N#CC(Br)(Br)C(N)=O [DBNPA, 2,2-dibromo-3-nitrilopropionamide] | > 1000 | 3 | 3.7 | 10 | 10 | 10 | 10 | 1 | 1 | 1 | 1 | 1 | 2 to 3
2 | CCCCCCCCn1sccc1=O [OTW neat, N-octylisothiazolinone] |  |  | 1 | 1 | 1 | 1 | 1 |  |  |  |  |  | 
